“Also recorded” adds a separate entry of the source.
What was measured:
[1] = system: opioid mediated antinociceptive properties; conditions: rats; cited from earlier work
5-HT2A receptor = conditions: cited from earlier work
KOP receptors [2] = molecular target: T1, KOP receptors (Homo sapiens, UniProt P41145); experiment: biochemical; type: biochemical
κ opioid (KOP) receptors = conditions: cited from earlier work
[3] = system: locomotor effects of cocaine; conditions: rats; cited from earlier work
DOP receptors = DOP receptors (Homo sapiens, UniProt P41143); type: binding
DOP receptors, sequence (P41143 whole entry): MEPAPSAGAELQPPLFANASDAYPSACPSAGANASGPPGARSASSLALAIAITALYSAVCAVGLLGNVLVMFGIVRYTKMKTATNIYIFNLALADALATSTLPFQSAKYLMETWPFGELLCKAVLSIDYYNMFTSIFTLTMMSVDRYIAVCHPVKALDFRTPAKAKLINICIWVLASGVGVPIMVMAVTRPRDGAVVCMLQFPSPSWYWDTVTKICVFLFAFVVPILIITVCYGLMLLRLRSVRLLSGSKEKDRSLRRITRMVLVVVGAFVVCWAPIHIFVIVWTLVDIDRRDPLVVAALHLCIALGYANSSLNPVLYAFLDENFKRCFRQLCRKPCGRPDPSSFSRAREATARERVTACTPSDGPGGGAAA

KOP receptors [4] = molecular target: T1, KOP receptors; experiment: biochemical; type: binding

T1 sequence (P41145 whole entry): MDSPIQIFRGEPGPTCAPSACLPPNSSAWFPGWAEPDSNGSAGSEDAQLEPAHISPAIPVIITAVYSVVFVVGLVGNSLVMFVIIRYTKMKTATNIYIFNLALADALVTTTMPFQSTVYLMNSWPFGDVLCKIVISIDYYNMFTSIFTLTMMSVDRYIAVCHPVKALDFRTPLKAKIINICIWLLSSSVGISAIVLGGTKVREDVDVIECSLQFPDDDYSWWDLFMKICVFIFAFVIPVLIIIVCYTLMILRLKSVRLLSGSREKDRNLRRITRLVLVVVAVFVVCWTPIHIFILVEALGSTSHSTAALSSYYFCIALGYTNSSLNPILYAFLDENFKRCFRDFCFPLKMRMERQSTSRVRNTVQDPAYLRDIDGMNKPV

COC(=O)[C@@H]1C[C@H](OC(C)=O)C(=O)[C@H]2[C@@]1(C)CC[C@H]1C(=O)O[C@H](c3ccoc3)C[C@]21C [Compound 1, (2S,4aR,6aR,7R,9S,10aS,10bR)-methyl 9-acetoxy-2-(furan-3-yl)-6a,10b-dimethyl-4,10-dioxo-dodecahydro-1H-benzo[f]isochromene-7-carboxylate]
Antinociceptive properties [1]: opioid mediated antinociceptive properties | Affinity for the 5-HT2A receptor (5-HT2A receptor): does not have any affinity | KOP ED50 ± SD (KOP receptors [2]): 40 nM | Agonism at κ opioid (KOP) receptors (κ opioid (KOP) receptors): full agonist | Effect on locomotor effects of cocaine [3]: can block the locomotor effects of cocaine

CCOC(=O)C1=C(C(=O)OCC)C2OC1C=C2[C@@H]1C[C@]2(C)[C@H]3C(=O)[C@@H](OC(C)=O)C[C@@H](C(=O)OC)[C@]3(C)CC[C@H]2C(=O)O1 (stereo partly drawn) [Compound 5, Diethyl 5-((2S,4aR,6aR,7R,9S,10aS,10bR)-9-acetoxy-7-(methoxycarbonyl)-6a,10b-dimethyl-4,10-dioxododecahydro-1H-benzo[f]isochromen-2-yl)-7-oxabicyclo[2.2.1]hepta-2,5-diene-2,3-dicarboxylate]
EC50 (KOP receptors [2]): 2150 nM | Efficacy at KOP receptors (in words) (KOP receptors [2]): full agonists; also recorded: high efficacy | Fold increase in affinity for DOP receptors (DOP receptors): over 4 fold

COC(=O)C1=C(C(=O)OC)C2OC1C=C2[C@@H]1C[C@]2(C)[C@H]3C(=O)[C@@H](OC(C)=O)C[C@@H](C(=O)OC)[C@]3(C)CC[C@H]2C(=O)O1 (stereo partly drawn) [Compound 6, Dimethyl 5-((2S,4aR,6aR,7R,9S,10aS,10bR)-9-acetoxy-7-(methoxycarbonyl)-6a,10b-dimethyl-4,10-dioxododecahydro-1H-benzo[f]isochromen-2-yl)-7-oxabicyclo[2.2.1]hepta-2,5-diene-2,3-dicarboxylate]
EC50 (KOP receptors [2]): 980 ± 200 nM | Efficacy at KOP receptors (in words) (KOP receptors [2]): full agonist

COC(=O)[C@@H]1C[C@H](OC(C)=O)C(=O)[C@H]2[C@@]1(C)CC[C@H]1C(=O)O[C@H](C3=CC4OC3C3C5OC(c6c5c5ccccc5c(=O)c5ccccc65)C43)C[C@]21C (stereo partly drawn) [Compound 11, (2S,4aR,6aR,7R,9S,10aS,10bR)-Methyl 9-acetoxy-2-(8,8a,9,12,12a,13-hexahydro-8,13:9,12-diepoxy-5H-dibenzo[3,4:6,7]cyclohept[1,2]naphthanen-5-on-10-yl)-6a,10b-dimethyl-4,10-dioxododecahydro-1H-benzo[f]isochromene-7-carboxylate]
Ki ± SD (nM) DOP (DOP receptors): no appreciable affinity

COC(=O)[C@@H]1C[C@H](OC(C)=O)C(=O)[C@H]2[C@@]1(C)CC[C@H]1C(=O)O[C@H](C3=CC4OC3C3C4C4OC3(C)c3c4c4ccccc4c(=O)c4ccccc34)C[C@]21C (stereo partly drawn) [Compound 12, (2S,4aR,6aR,7R,9S,10aS,10bR)-Methyl 9-acetoxy-2-(8,8a,9,12,12a,13-hexahydro-8-methyl-8,13:9,12-diepoxy-5H-dibenzo[3,4:6,7]cyclohept[1,2]naphthanen-5-on-10-yl)-6a,10b-dimethyl-4,10-dioxododecahydro-1H-benzo[f]isochromene-7-carboxylate]
Fold increase in affinity for KOP receptors (KOP receptors [4]): 44 fold

COC(=O)c1ccc([C@@H]2C[C@]3(C)[C@H]4C(=O)[C@@H](OC(C)=O)C[C@@H](C(=O)OC)[C@]4(C)CC[C@H]3C(=O)O2)cc1C(=O)OC [Compound 14, Dimethyl 4-((2S,4aR,6aR,7R,9S,10aS,10bR)-9-acetoxy-7-(methoxycarbonyl)-6a,10b-dimethyl-4,10-dioxododecahydro-1H-benzo[f]isochromen-2-yl)phthalate]
Ki (KOP receptors [4]): 228 nM

COC(=O)[C@@H]1C[C@H](OC(C)=O)C(=O)[C@H]2[C@@]1(C)CC[C@H]1C(=O)O[C@H](c3ccc4ccccc4c3)C[C@]21C [Compound 15, (2S,4aR,6aR,7R,9S,10aS,10bR)-methyl 9-acetoxy-6a,10b-dimethyl-2-(naphthalen-2-yl)-4,10-dioxododecahydro-1H-benzo[f]isochromene-7-carboxylate]
Ki (KOP receptors [4]): 286 nM

From PMC3081938 (Journal of natural products, 2011)
